Source: paper PMC10309634, “Computer simulation approach to the identification of visfatin-derived angiogenic peptides” (PLOS ONE, 2023)

Assays:
Format in all cases: cell-based, human
[1] = system: VEGF-A mRNA expression; assay: RT-qPCR of VEGF-A mRNA in HUVECs; conditions: 24 hours, RT-qPCR vs GAPDH, compared to the control group
Procedure: (§1) After treating HUVECs with visfatin-derived peptides for 24 hours, the total RNA was isolated from the cultured HUVECs using the Tri-RNA reagent (Favorgen Biotech Corp., Kaohsiung, Taiwan) according to the manufacturer’s instructions. cDNA was synthesized from 1 μg of total RNA using the iScript^TM cDNA Synthesis Kit (Bio-Rad Laboratories, Inc., Hercules, CA, USA). The mRNA expression levels of VEGF and visfatin were carried out using Applied Biosystems 7500 software (Applied Biosystems Inc., Waltham, MA, USA). Real-time PCR was performed using SYBR Green Q-PCR Master Mix (Samjung Bio Science, Daejeon, South Korea). The reaction conditions were as follows: initial denaturation at 95°C for 5 min, amplification at 95°C for 15 sec, and at 60°C for 1 min. All PCR amplifications were performed for 40 cycles. The specific primers used were as follows: 5’-[…]-3’ (forward) and 5’-GTG ATGGCATGGACTGTGGT-3’ (reverse) for glyceraldehyde-3-phosphate dehydrogenase (GAPDH); 5’-GGAGG GTGACGGGGTGAAGG-3’ (forward) and 5’-[…]-3’ (reverse) for visfatin; and 5’-[…]-3’ (forward) and 5’-[…]-3’ (reverse) for VEGF-A. The relative changes in the gene expression were determined using the 2^-ΔΔCt method and the results were normalized to the expression of GAPDH.

[2] = system: HUVECs; assay: MTT cell cytotoxicity assay; conditions: MTT, 0.1, 0.5, 1.0 and 2.0 μM, 24 hours, triplicate
Procedure: HUVECs were grown in EGM-2 supplemented with an EGM-2 Supplement Mix® (PromoCell) containing 2% FBS at a density of 1×10^4 cells in 96-well plates (SPL Inc., Gyeonggido, Korea). After 24 hours, the cells were treated with 1000ng/ml visfatin (Adipogen Life Science) and various concentrations of visfatin-derived peptides (0.1, 0.5, 1.0, and 2.0 μM), and then incubated overnights in an atmosphere of 5% CO2. The 3-(4,5-Dimethylthiazol-2-yl)-2,5-diphenyltetrazolium bromide (MTT) assay reagents (Sigma-Aldrich, St. Louis, MO, USA) were as added directly to each well to a final concentration of 0.5 mg/ml. After 4 hours, the medium was removed, the formazan crystals formed in the cells were dissolved in DMSO, and the absorbance of the formazan solution was measured using a Synergy HTX Multi-Mode Reader (BIO-TEK, Vermont, USA) with a 540 nm filter. Each sample was assayed in triplicate.

[3] = system: visfatin mRNA expression; assay: RT-qPCR of visfatin mRNA in HUVECs; conditions: 24 hours, RT-qPCR vs GAPDH, compared to the control group
Procedure: as §1

[4] = system: HUVECs; assay: In vitro trans-well invasion assay; conditions: 24 hours, Matrigel-coated trans-well, compared to the control and visfatin-treated groups
Procedure: The invasion capacity of the cells was determined using a 24-well trans-well system. The upper side of the trans-well membrane was coated with 1 mg/mL Matrigel at 10 μL/well at room temperature for 1 hour. The EGM-2 medium (0.5 ml)was added to the lower part of trans-well chamber. HUVECs (2×10^4 cells) and EGM medium (0.1 ml) were placed on the upper compartment of the trans-well. And then b-FGF (25ng/ml), visfatin (1000 ng/ml), and visfatin-derived peptides (0.5μM and 2.0μM) were added to the upper compartment of the trans-well. Cells were incubated at 37°C and 5% CO2 for 24 hours, fixed with methanol, and stained with hematoxylin and eosin. The cells on the upper surface of the membrane were removed by wiping with a cotton swab. Cell invasion was determined by counting the number of whole cells in a single filter using optical microscopy at 40× magnification. Each sample was assayed in duplicate, and independent experiments were repeated three times.

[5] = system: HUVECs; assay: In vitro tube formation assay on Matrigel; conditions: 4 hours on Matrigel
Procedure: HUVECs (2×10^4 cells/well) were seeded on a layer of polymerized Matrigel and treated with or without visfatin-derived peptides. The Matrigel culture was incubated at 37°C in the EGM supplemented with EGM-Supplement Mix® containing 1% FBS. After 4 hours, changes in the cell morphology were observed using a phase-contrast microscope and photographed at 40× magnification. Each sample was assayed in duplicate, and independent experiments were repeated three times. Angiogenesis was analyzed with ImageJ software using an angiogenesis analyzer (Bethesda, MD, USA).

[6] = system: HUVECs; assay: In vitro wound healing migration assay; conditions: 18 h, scratch wound, compared to the control group
Procedure: HUVECs were seeded in 24-well plates (SPL) at a density of 2×10^5 cells and incubated in EGM medium supplemented with EGM-Supplement Mix® containing 1% FBS overnight. Cells were scratched using a P200 pipette tip to induce a wound. Subsequently, then b-FGF (25ng/ml), visfatin (1000 ng/ml), and visfatin-derived peptides (0.5μM and 2.0μM) were added and the culture was maintained for 18 hours to allow the cells to migrate. The migration patterns were observed using a phase-contrast microscope and images were captured. The wound diameters were photographed at 16–24 hours. Wound closure was determined using optical microscopy at 40× magnification. Migration was quantified by counting the number of cells that had moved beyond the reference line.

EYKLHDFGYRGV [Peptide-2, visfatin-derived peptide … (12AA), synthesised by GL Biochem]
mRNA expression of VEGF-A ([1]; 0.5 μM): significantly increased
mRNA expression of VEGF-A ([1]; 2.0 μM): remarkably increased
cytotoxic effect / viability of HUVECs [2]: no cytotoxic effect
mRNA expression of visfatin ([3]; 0.5 μM): significantly increased
mRNA expression of visfatin ([3]; 2.0 μM): significantly increased
increase of cell invasion ([4]; 2.0 μM): more than two-fold
number of master junctions ([5]; 0.5 μM, vs control): significantly increased
number of meshes ([5]; 0.5 μM, vs control): significantly increased
increase in cell migration ([6]; 2.0 μM): two-fold increase

LEYKLHDFGY [Peptide-1, visfatin-derived peptide […]; (10AA), synthesised by GL Biochem]
mRNA expression of VEGF-A ([1]; 0.5 μM): significantly increased
mRNA expression of VEGF-A ([1]; 2.0 μM): did not increase
cytotoxic effect / viability of HUVECs [2]: no cytotoxic effect
mRNA expression of visfatin ([3]; 0.5 μM): significantly increased
mRNA expression of visfatin ([3]; 2.0 μM): did not increase
increase of cell invasion ([4]; 0.5 μM): more than two-fold
number of master junctions ([5]; 0.5 μM, vs control): significantly increased
number of meshes ([5]; 0.5 μM, vs control): significantly increased
number of master junctions ([5]; 2.0 μM, vs control): significantly increased
increase in cell migration ([6]; 0.5 μM): two-fold increase

b-FGF: recombinant human basic fibroblast growth factor, positive control
number of meshes ([5]; positive controls, compared to the control group): not significantly different
